Measurements from US11419806B2, “Prebiotic oral care methods using a saccharide” (Colgate-Palmolive Company, priority 2013, dated 2022).

Key:
Assay type in all cases: cell-based
Tannerella forsythia = assay: Twenty-four hour optical density growth in BHI; conditions: T forsythia
Description: (§1) The extent of growth of the tested bacteria in response to selected saccharides (myo-inositol, D-lactitol, D-turanose and N-acetyl-D-mannosamine) was investigated by setting up growth curves in a nutritionally rich medium (brain heart infusion broth (BHI), Oxoid), over 24 hours. Late exponential growth phase liquid cultures were prepared by transferring the respective bacterium from blood agar plates to BHI and overnight incubation at 37° C. in an anaerobic atmosphere for A. viscosus, V. parvula, F. nucleatum, P. gingivalis, P. intermedia, T. forsythia, A. naeslundii, and C. sputigena, and in a 5% CO2 environment for S. salivarius, S. sanguinis, S. mitis, A. actinomycetemcomitans, S. mutans, S. sobrinus and S. gordonii. Overnight cultures were transferred to BHI and adjusted to a concentration of 1×10^7 CFU/ml (colony forming units per ml) by measuring the optical density at 600 nm (OD600) (BioRad SmartSpec 3000). For each strain, 200 μl of the bacterial suspension was added to a 96-well plate containing 20 μl of the respective saccharides. Final concentrations of the saccharides were set to 5, 10, 20 and 25 μmol/ml. […] Plates were incubated as previously described.
(§2) For each combination of bacterium/saccharide, and for each of their respective controls (i.e. the particular bacterium in the nutritionally rich medium with no saccharide), the optical density was measured at 630 nm (OD630) at 0 h and 24 h (Thermo Scientific Multiskan Ascent). Additionally, the OD630 for combinations of bacterium/saccharides grown in a 5% CO2 environment were also measured every hour between 0 h and 9 h.
(§3) The experiment was carried out on three different days (thus providing 3 biological replicas) and on each day the experiment was carried out in quadruple (thus providing 4 technical replicas) for each combination of bacterium with saccharide and for each control. For each day and for each combination, the average (mean) of the values obtained (as detailed above) for the four technical replicas was calculated to provide a single value for each combination on each day. The values shown in Tables 5a,b to 6a,b, below, are the average (mean) of the three single values obtained for each combination of bacterium with saccharide.

Streptococcus mutans = assay: Twenty-four hour optical density growth in BHI; conditions: S mutans
Description: as §1, §2, §3

Porphyromonas gingivalis = assay: Twenty-four hour optical density growth in BHI; conditions: P gingivalis
Description: as §1, §2, §3

Fusobacterium nucleatum = assay: Twenty-four hour optical density growth in BHI; conditions: F nucleatum
Description: as §1, §2, §3

Actinomyces naeslundii = assay: Twenty-four hour optical density growth in BHI; conditions: A naeslundii
Description: as §1, §2, §3

Capnocytophaga sputigena = assay: Twenty-four hour optical density growth in BHI; conditions: C sputigena
Description: as §1, §2, §3

Streptococcus gordonii = assay: Twenty-four hour optical density growth in BHI; conditions: S gordonii
Description: as §1, §2, §3

Actinomyces viscosus = assay: Twenty-four hour optical density growth in BHI; conditions: A viscosus
Description: as §1, §2, §3

[1] = test system: beneficial oral bacteria and pathogenic oral bacteria; assay: Twenty-four hour optical density, overall prebiotic assessment; conditions: concentrations of 5, 10, 20 and 25 μmol/ml
From the text: Substrates that were able to increase the growth (or maximal growth density or extent of growth) of at least one of the above beneficial bacteria while not or only minimally increasing the growth (or maximal growth density) of the pathogenic bacteria are considered to be prebiotic compounds.
The extent of growth of the tested bacteria in response to selected saccharides (myo-inositol, D-lactitol, D-turanose and N-acetyl-D-mannosamine) was investigated by setting up growth curves in a nutritionally rich medium (brain heart infusion broth (BHI), Oxoid), over 24 hours. Late exponential growth phase liquid cultures were prepared by transferring the respective bacterium from blood agar plates to BHI and overnight incubation at 37° C. in an anaerobic atmosphere for A. viscosus, V. parvula, F. nucleatum, P. gingivalis, P. intermedia, T. forsythia, A. naeslundii, and C. sputigena, and in a 5% CO2 environment for S. salivarius, S. sanguinis, S. mitis, A. actinomycetemcomitans, S. mutans, S. sobrinus and S. gordonii. […]
as §2
as §3, with “The values shown in Tables 5a,b to 6a,b, below, are the average (mean) of the three single values obtained for each combination of bacterium with saccharide.” left out

[2] = test system: beneficial oral bacteria and pathogenic oral bacteria; assay: Twenty-four hour biofilm growth, overall prebiotic assessment; conditions: concentrations of 5, 10, 20 and 25 μmol/ml
From the text: Substrates that were able to increase the biofilm mass of at least one of the above beneficial bacteria while not or only minimally increasing the biofilm mass of the pathogenic bacteria are considered to be prebiotic compounds.
The increase in biofilm formation of the tested bacteria in response to selected saccharides (D-turanose, D-lactitol, myo-inositol, and N-acetyl-D-mannosamine) was investigated by setting up biofilm growth assays in a nutritionally rich medium (brain heart infusion broth (BHI), Oxoid), over 24 hours. Late exponential growth phase liquid cultures were prepared by transferring the respective bacterium from blood agar plates to BHI and overnight incubation at 37° C. in an anaerobic atmosphere for A. viscosus, V. parvula, P. gingivalis, P. intermedia, T. forsythia, A. naeslundii, and C. sputigena, and in a 5% CO2 environment for S. salivarius, S. sanguinis, S. mitis, A. actinomycetemcomitans, S. mutans, and S. gordonii. Overnight cultures were transferred to BHI and adjusted to a concentration of 1×10^7 CFU/ml by measuring the optical density at 600 nm (OD600) (BioRad SmartSpec 3000). For each strain, 200 μl of the bacterial suspension was added to a 96-well plate containing 20 μl of the respective saccharides. Final concentrations of the saccharides were set to 5, 10, 20 and 25 μmol/ml. […] Additionally, for each bacterium tested, a background control, to correct for background staining, was added. This background control contained the bacterium tested and 0.03 weight % chlorhexidine, as an antiseptic. Plates were incubated as previously described. After 24 hrs the supernatant was removed from the wells of the plates. The wells were washed twice with 1×100 μL PBS (phosphate buffered saline), fixed for 20 minutes with 96% vol. ethanol (96% vol. solution in water) and the biofilm retained at the bottom of the wells was stained with 1 weight % crystal violet (1 weight % solution in water). The bound dye was dissolved with 5% vol. acetic acid (5% vol. solution in water). Quantification of the stained biofilm was performed by measuring the absorbance at 630 nm using a Multiskan Ascent microplate reader (Thermo Scientific).
as §3, with “and” for “and on”, “7a, 7b, 8a, 8b,” for “5a,b to 6a,b,”, “saccharide. […]” for “saccharide.”

## CC(=O)N[C@H](C=O)[C@@H](O)[C@H](O)[C@H](O)CO [N-acetyl-D-mannosamine, 2-acetamido-2-deoxy-D-mannose]
Tannerella forsythia; 5 μmol/ml
  extent of growth: maximal OD630 over 24 hr divided by maximal OD of control (control = 1): 0.9742
Tannerella forsythia; 10 μmol/ml
  extent of growth: maximal OD630 over 24 hr divided by maximal OD of control (control = 1): 0.9715
Tannerella forsythia; 20 μmol/ml
  extent of growth: maximal OD630 over 24 hr divided by maximal OD of control (control = 1): 0.9706
Tannerella forsythia; 25 μmol/ml
  extent of growth: maximal OD630 over 24 hr divided by maximal OD of control (control = 1): 0.9451
Streptococcus mutans; 5 μmol/ml
  extent of growth: maximal OD630 over 24 hr divided by maximal OD of control (control = 1): 0.8669
Streptococcus mutans; 10 μmol/ml
  extent of growth: maximal OD630 over 24 hr divided by maximal OD of control (control = 1): 0.8670
Streptococcus mutans; 20 μmol/ml
  extent of growth: maximal OD630 over 24 hr divided by maximal OD of control (control = 1): 0.8300
Streptococcus mutans; 25 μmol/ml
  extent of growth: maximal OD630 over 24 hr divided by maximal OD of control (control = 1): 0.8283
Porphyromonas gingivalis; 5 μmol/ml
  extent of growth: maximal OD630 over 24 hr divided by maximal OD of control (control = 1): 0.8020
Porphyromonas gingivalis; 10 μmol/ml
  extent of growth: maximal OD630 over 24 hr divided by maximal OD of control (control = 1): 0.8427
Porphyromonas gingivalis; 20 μmol/ml
  extent of growth: maximal OD630 over 24 hr divided by maximal OD of control (control = 1): 0.9137
Porphyromonas gingivalis; 25 μmol/ml
  extent of growth: maximal OD630 over 24 hr divided by maximal OD of control (control = 1): 0.9419
Fusobacterium nucleatum; 5 μmol/ml
  extent of growth: maximal OD630 over 24 hr divided by maximal OD of control (control = 1): 0.9065
Fusobacterium nucleatum; 10 μmol/ml
  extent of growth: maximal OD630 over 24 hr divided by maximal OD of control (control = 1): 0.8477
Fusobacterium nucleatum; 20 μmol/ml
  extent of growth: maximal OD630 over 24 hr divided by maximal OD of control (control = 1): 0.9564
Fusobacterium nucleatum; 25 μmol/ml
  extent of growth: maximal OD630 over 24 hr divided by maximal OD of control (control = 1): 0.9193
Actinomyces naeslundii; 5 μmol/ml
  extent of growth: maximal OD630 over 24 hr divided by maximal OD of control (control = 1): 0.9820
Actinomyces naeslundii; 10 μmol/ml
  extent of growth: maximal OD630 over 24 hr divided by maximal OD of control (control = 1): 0.8708
Actinomyces naeslundii; 20 μmol/ml
  extent of growth: maximal OD630 over 24 hr divided by maximal OD of control (control = 1): 0.9716
Actinomyces naeslundii; 25 μmol/ml
  extent of growth: maximal OD630 over 24 hr divided by maximal OD of control (control = 1): 0.8535
Capnocytophaga sputigena; 5 μmol/ml
  extent of growth: maximal OD630 over 24 hr divided by maximal OD of control (control = 1): 0.9620
Capnocytophaga sputigena; 10 μmol/ml
  extent of growth: maximal OD630 over 24 hr divided by maximal OD of control (control = 1): 0.9635
Capnocytophaga sputigena; 20 μmol/ml
  extent of growth: maximal OD630 over 24 hr divided by maximal OD of control (control = 1): 0.9576
Capnocytophaga sputigena; 25 μmol/ml
  extent of growth: maximal OD630 over 24 hr divided by maximal OD of control (control = 1): 0.9554
Streptococcus gordonii; 5 μmol/ml
  extent of growth: maximal OD630 over 24 hr divided by maximal OD of control (control = 1): 0.9930
Streptococcus gordonii; 10 μmol/ml
  extent of growth: maximal OD630 over 24 hr divided by maximal OD of control (control = 1): 1.0254
Streptococcus gordonii; 20 μmol/ml
  extent of growth: maximal OD630 over 24 hr divided by maximal OD of control (control = 1): 0.9827
Streptococcus gordonii; 25 μmol/ml
  extent of growth: maximal OD630 over 24 hr divided by maximal OD of control (control = 1): 1.0015
Actinomyces viscosus; 5 μmol/ml
  extent of growth: maximal OD630 over 24 hr divided by maximal OD of control (control = 1): 0.8017
Actinomyces viscosus; 10 μmol/ml
  extent of growth: maximal OD630 over 24 hr divided by maximal OD of control (control = 1): 0.8753
Actinomyces viscosus; 20 μmol/ml
  extent of growth: maximal OD630 over 24 hr divided by maximal OD of control (control = 1): 0.9225
Actinomyces viscosus; 25 μmol/ml
  extent of growth: maximal OD630 over 24 hr divided by maximal OD of control (control = 1): 0.8824
[1]
  prebiotic effects (extent of growth, threshold value 1.25): exhibited prebiotic effects
[2]
  prebiotic effects (biofilm growth, threshold value 1.6): exhibited prebiotic effects
